Assay results reported in US20220267394A1, “COMPOUNDS FOR INDUCING TISSUE FORMATION AND USES THEREOF” (HISTIDE AG, priority 2015, published 2022).
Where no end group is shown, it is not given here.

System: hMSCs
Assay: Loss of stemness: STRO-1 expression by immunostaining
Type: cell-based, human
Protocol: The cells were first fixed for 20 min with 4% paraformaldehyde/PBS at 4° C. After fixation, the cells were permeabilized in PBS containing 1% Triton X-100 for 15 min. Runx2, Osterix, Stro-1, Vinculin, Phalloidin, Osteopontin, Sox2, Sox9 antibodies were visualized by treating the cells with 1% (v/v) specific monoclonal antibodies for 1 hour at 37° C. Then the samples were incubated with Alexa Fluor® 568 or 647 (F(ab′)2 fragment of IgG(H+L)) during 30 min at room temperature. The cell nuclei were counterstained in 20 ng/mL DAPI for 10 min at room temperature.
For this type of quantification the freeware image analysis ImageJ® software was used. The raw image was first converted to an 8-bit file, and then the unsharp mask feature was used (settings 1:0.2) to remove the image background (rolling ball radius 10). After smoothing, the resulting image, which appears similar to the original photomicrograph but with minimal background, was then converted to a binary image by setting a threshold. Threshold values were determined empirically by selecting a setting, which gave the most accurate binary image for a subset of randomly selected photomicrographs. The cell area was determined by manual delineation on raw fluorescent images. Total contact area and mean contact area per cell were calculated by “analyse particules” in ImageJ®. A minimum of 30 cells per condition were analyzed. Stro-1, CD-34+, and CD-105 expressions were determined using this procedure.
hMSCs were cultured on conventional cell culture plastic plates with or without the presence in the cell culture media of different GFR-binding compounds as described herein (SEQ ID NO: 50 to 88) in solution. […] This was probed by Stro-1 immunostaining after cell fixation as described in the Methods section. The quantification of Stro-1 positive contact numbers and areas was performed as described in the Methods section. A minimum of 30 cells per condition were analyzed. Stro-1 positive marrow cells are multipotential and capable of differentiating into multiple mesenchymal lineages including stromal cells with a phenotype resembling vascular smooth muscle cells that can support hematopoiesis, adipocytes, osteoblasts, and chondrocytes.
Using the method detailed in the description, the RMSD of 57 previously reported peptide sequences have been determined (Table 6) and correlated with the expression of STRO-1 in solution. […] One should note that it is commonly admitted that the expression of STRO-1 in a cell is indicative of a cell that is in a substantially non-differentiated state and the decrease of its expression of at least about 20% is indicative of a cell that has started a process of differentiation but which may not result in the differentiation of the cell. A decrease of more than 50% would be indicative of the presence of a significant shift towards a differentiated state. A decrease of more than 70% would be indicative of the presence of a very important shift towards a differentiated state. A sustained decrease (e.g. for at least 96 h) of more than 50% or 70% would be indicative of the presence of an even more important shift towards a differentiated state.
Likewise, using the method detailed in the description, the RMSD of 75 GFR-binding peptide sequence representatives of the invention have been determined (Table 8) and correlated with the expression of STRO-1. SEQ ID NO: 1 to 49 were tested in combination with a bioactive carrier as defined above in the Examples Section (i.e. titanium, ceramics, collagen, etc. . . . ), whereas SEQ ID NO: 2242 to 2267 were tested in solution.

[1] = Table 8, SEQ ID NO: 2242 to 2267 tested in solution
[2] = Table 6, previously reported peptides in solution, 400 ng/mL
[3] = Table 8, SEQ ID NO: 1 to 49 tested in combination with a bioactive carrier (titanium, ceramics, collagen, etc.)

| Substance | STRO-1 expression (%) [2] [%] | STRO-1 expression (%) [3] [%] | other results |
| --- | --- | --- | --- |
| 2263 (ASASPSSAPVDLKPLSMLYVIGKTPKIDHHKDMIVEESKSS; GFR-binding peptide) [compound 2263] | – | – | STRO-1 expression (%) [1]: 16% |
| 2194 (KGSEYEKLVVSGITQVYQSSLSWHGCKSCCEVQVXNLXILIRLYDVHYYN; Peptide reported in US20040172684, SEQ ID NO:47782; MOD_RES (35), (38): Xaa is A) [compound 2194] | 88 | – | – |
| 2261 (NDEGLESVPTGQSPISILYIRIKPHQGQHYKQYELEEHSQSESR; GFR-binding peptide) [compound 2261] | – | – | STRO-1 expression (%) [1]: 17% |
| 23 (GTPGPKVPKPSSAPTQLSAISTLYLDEYDKVVLKNYQNMAVR; not fully specified; ends and bridges not checked) [compound 23] | – | 17 | – |
| 2172 (PNYSVPAGNKPLSERE; Peptide reported in WO2013040142, SEQ ID NO:543064) [compound 2172] | 95 | – | – |
| 2266 (RVPSTSSAPVKTSNITMQIMDNGRVLLLGEMSMIVEESGSL; GFR-binding peptide) [compound 2266] | – | – | STRO-1 expression (%) [1]: 22% |
| 2256 (VPTDDSATSTLYYDKGVVTYLRKHRDDEHS; GFR-binding peptide) [compound 2256] | – | – | STRO-1 expression (%) [1]: 27% |
| 2206 (CIPKPSSAPTELSAISMLYL; Peptide reported in WO2009151288, SEQ ID NO:2) [compound 2206] | 83 | – | – |
| 2203 (TCCVPELSAISMLYLDEN; Peptide reported in US5496552, SEQ ID NO:5) [compound 2203] | 84 | – | – |
| 2189 (SSVPAVCSATSATGPYSTATNTVWFDVYATTVY; Peptide reported in EP1687419, SEQ ID NO:46) [compound 2189] | 91 | – | – |
| 44 (CAAPASSSVPARLSPISILYIDAANNVVYKQYEDMVVE; not fully specified; ends and bridges not checked) [compound 44] | – | 27 | – |
| 28 (GTPGPAPTKLSAISMLYLDSSNNVILKKYR; GFR-binding peptide) [compound 28] | – | 19 | – |
| 2174 (CVTKPLSSLLFPNWNTTTTPTPP; Peptide reported in WO2013040142, SEQ ID NO:642255) [compound 2174] | 92 | – | – |
| 2265 (AVPKASSVPQKLEPLTILYYDSSNNVIEQLSNNMVKSASGSH; GFR-binding peptide) [compound 2265] | – | – | STRO-1 expression (%) [1]: 21% |
| 2164 (HIRSTTSSYVSLKSNITNRTIQTPTYSYT; Peptide reported in US20120216318, SEQ ID NO:347659) [compound 2164] | 98 | – | – |
| 2181 (VPTKLSPISILYKDDMGVPTYKFKYEGMSVAECGCR; Peptide reported in US20140056902, SEQ ID NO:88) [compound 2181] | 82 | – | – |
| 2 (CKVGKASSVPTKLSAISTLYLDDMGVPTLKNYQNMVVRASGSH; not fully specified; ends and bridges not checked) [compound 2] | – | 21 | – |
| 46 (CPARLSPISLLYIDAANNVVYKQYEDM; GFR-binding peptide) [compound 46] | – | 19 | – |
| 2192 (SFRTARANAPTGRSSLSGEKEQQEASTHS; Peptide reported in WO2013040142, SEQ ID NO:3136558) [compound 2192] | 91 | – | – |
| 2210 (SRVLPIVVQGYVPVQDTKFLGIYYVIGPIIARVILSSSSAISSLNKS; Peptide reported in US20040031072, SEQ ID NO:188005) [compound 2210] | 84 | – | – |
| 18 (CKVGKASSVPTKLNAISTLYLDENEKVVLKKYREGMS; not fully specified; ends and bridges not checked) [compound 18] | – | 19 | – |
| 29 (GTPGPKASSVPTELSPISTLYKDENEKVVLKYHYDMVVEGSGSR; not fully specified; ends and bridges not checked) [compound 29] | – | 21 | – |
| 2201 (KIPKPSSAPTELSAISMC; Peptide reported in WO2009151288, SEQ ID NO:7) [compound 2201] | 78 | – | – |

| Substance | STRO-1 expression (%) [2] [%] | STRO-1 expression (%) [3] [%] | other results |
| --- | --- | --- | --- |
| 27 (GTPGPAPTKLSAISMLYLDSSNNVILRKHR; GFR-binding peptide) [compound 27] | – | 19 | – |
| 2242 (VPTAASAISILYLDAANNVVLKNYQAAVVE; GFR-binding peptide) [compound 2242] | – | – | STRO-1 expression (%) [1]: 17% |
| 14 (CAPTKLSAISMLYLDSSNNVILKNYQ; GFR-binding peptide) [compound 14] | – | 16 | – |
| 2159 (PIIYYVGRNVRVEQLSNMVVRA; Peptide reported in US5436228, SEQ ID NO:14) [compound 2159] | 92 | – | – |
| 10 (CPSSAPTQLSATSVLYYDDSSNVILRKHRQHNK; GFR-binding peptide) [compound 10] | – | 19 | – |
| 15 (CASSAVSQELSAISMLYLGGGLKNYQDM; GFR-binding peptide) [compound 15] | – | 21 | – |
| 16 (CKASSVPTELSPISTLYKDENEKVVLKYHYDMVVEGSGSR; not fully specified; ends and bridges not checked) [compound 16] | – | 18 | – |
| 2246 (APTGGSATSMLYYDKGVVTYLRKHRGGVVK; GFR-binding peptide) [compound 2246] | – | – | STRO-1 expression (%) [1]: 23% |
| 2185 (LGIAAIIFLQQVPAAFSATSPPG; Peptide reported in WO2013040142, SEQ ID NO:1139935) [compound 2185] | 97 | – | – |
| 2202 (CPKPSSAPTELSAISMLL; Peptide reported in WO2009151288, SEQ ID NO:3) [compound 2202] | 79 | – | – |
| 30 (GTPGPKASSVPTELSPISTLYKDENEKVVLKYHYDM; GFR-binding peptide) [compound 30] | – | 18 | – |
| 2244 (VPTVVSAISTLYLRIKPHQGQHLKNYQVVVVE; GFR-binding peptide) [compound 2244] | – | – | STRO-1 expression (%) [1]: 21% |
| 2255 (SRVAARSVKMAKVGGGGGGGKEVQVAAEEH; GFR-binding peptide) [compound 2255] | – | – | STRO-1 expression (%) [1]: 31% |
| 8 (CAPTQLSPISVLYKDDSSNVILKYHYTLEDH; GFR-binding peptide) [compound 8] | – | 19 | – |
| 2254 (VPTMMSNITTQIMRIKPHQGQHIGEMSMMQHN; GFR-binding peptide) [compound 2254] | – | – | STRO-1 expression (%) [1]: 19% |
| 41 (CGIPEPSSVPEKMSSLSILFFDENKNVVLKVYPNM; not fully specified; ends and bridges not checked) [compound 41] | – | 22 | – |
| 2169 (IKSPARHSAPTHQEPLP; Peptide reported in WO2013040142, SEQ ID NO:3157977) [compound 2169] | 98 | – | – |
| 36 (CKIPKASSVPTELEPLPIVYYVGRKPKVEQLSNMIVRS; not fully specified; ends and bridges not checked) [compound 36] | – | 19 | – |
| 39 (CVPTEESNITMQIMRIKPHQGQHIGEMSFL; GFR-binding peptide) [compound 39] | – | 16 | – |
| 2183 (TPTVVSATSL; Peptide reported in US20150153356, SEQ ID NO:51419) [compound 2183] | 98 | – | – |
| 3 (CASASPSSVSQDLSAISTLYLIGKTPKILKNYQMIVKSSKSS; not fully specified; ends and bridges not checked) [compound 3] | – | 18 | – |
| 2213 (KPCCAPTQLSAISVLYFDDSSNVILKKYRNMVVRACGCR; Peptide reported in US20050250936, SEQ ID NO:123) [compound 2213] | 80 | – | – |
| 2211 (CCAPTELSAISVLYFDDSSNVILKKYRNMVVRACGCR; Comparative sequence) [compound 2211] | 81 | – | – |
